# Source: patent US9511072B2, “Methods of modulating cell proliferation and cyst formation in polycystic kidney and liver diseases” (The Medical College of Wisconsin, Inc., priority 2006, dated 2016)
# Key:
# 20-HETE = conditions: cited from earlier work
# REC11 cells = assay: BrdU proliferation of EGF-stimulated REC11 cystic renal epithelial cells; assay type: cell-based, mouse; conditions: 10 μM, 36 hrs, after EGF 25 ng/ml for 6 hours
# From the text: REC11 cystic cell line is a conditionally immortalized epithelial collecting tubule (CT) cell line derived from the cystic kidneys of the BPK mouse model of human ARPKD crossed to the ImmortoMouse. The BPK mouse as a human ARPKD model has been described in Nauta J. et al., Pediatr Nephrol 1993, 7:163-172 and Nauta J. et al., Pediatr Res 1995, 37:755-763. The procedures for immortalization, cell isolation, cell culture and the complete phenotypic characterization of this cell line have been described in detail in Sweeney W. E. et al., Am J Physiol C Physiol 2001, 281:C1695-705. All analysis and experiments were performed on REC11 cells grown for a minimum 6 days under non-permissive conditions to eliminate residual Large T.
# Proliferation of REC11 cells was stimulated by exposure of the cells for 6 hours with EGF (25 ng/ml). Next, the cells were treated with vehicle, HET0016 (10 μM, a 20-HETE synthesis inhibitor), HET0016 (20 μM), DDMS (10 μM, a 20-HETE synthesis inhibitor), or WIT-002 (10 μM, a 20-HETE antagonist) for 36 hrs, pulsed with BrdU, and then stained for BrdU labeled cells to determine the degree of cell proliferation. […] Cells treated with a higher dose of HET0016 (20 μM) (column C) reduced proliferation by 75% (p<0.020). Cells treated with another chemically dissimilar inhibitor of the synthesis of 20-HETE, DDMS (10 μM) (column D), reduced proliferation by 47% (p<0.05). Cells treated with WIT-002 (10 μM) (column E) reduced proliferation by 25%.
# cystic BPK cells = assay: BrdU incorporation in cystic BPK cells; assay type: cell-based, mouse; conditions: 10 μM, 36 hours; vehicle 118
# Method: To determine the level of proliferation in the cystic BPK cells, chemically dissimilar inhibitors of cytochrome P450 4A (CYP4A) and 4F (CYP4F) inhibitors, specifically HET-0016 (10 and 20 μM) and DDMS (10 μM), were incubated for 36 hours with the BPK cells. Three hours prior to the harvesting of the cells, 5-bromo-2′-deoxyuridine (BrdU) at a concentration of 30 μM was added to determine the level of cell cycle inhibition. The cells were subsequently methanol fixed and BrdU-positive cells were identified by immunohistology with biotinylated monoclonal anti-BrdU antibody (Zymed, South San Francisco, Calif.). Data were expressed as the percentage of BrdU-labeled cells per 500 counted cells.
Structure (SMILES),20-HETE levels in vivo (20-HETE),reduction of proliferation (BrdU labeled cells) vs vehicle (REC11 cells),BrdU-positive cells per 500 total cells counted (cystic BPK cells)
"Nn1nnc2ccccc21 [Compound 1-ABT, 1-aminobenzotriazole]",reduce 20-HETE levels in vivo,–,–
"C#CCCCCCCCCCCCCCCCC(=O)O [Compound 17-ODYA, 17-Octadecynoic acid]",reduce 20-HETE levels in vivo,–,–
"CS(=O)(=O)NC(=O)CCCCCCCCCC=C(Br)Br [DDMS, dibromododecenyl methylsulfonimide]",–,47%,63 BrdU(+) cells
"O=C(O)CCCC/C=C\CCCCCCC/C=C\CCCCO [WIT-002, 20-hydroxyeicosa-6(Z),15(Z)-dienoic acid]",–,25%,–
